Measured values reported in article PMC9354705, “Characterization of TR‐107, a novel chemical activator of the human mitochondrial protease ClpP” (Pharmacology Research & Perspectives, 2022).
Read-outs that look alike come from different tables or passages of the source.

Assays:
[1] = system: ClpP‐KO MDA‐MB‐231 and SUM159 cells; experiment: Cell growth in ClpP‐KO cells; type: cell-based, human; conditions: concentrations as high as 1 μM, up to 72 h
Excerpt: sgRNA against human ClpP (Eurofins Genomics) was annealed and ligated into vector VDB783. This vector was transformed into DH5α cells and the presence of sgRNA was confirmed by colony PCR. Lentivirus was produced in HEK293T cells following transfection with plasmid and jetPRIME (PolyPlus) as previously described.[43] Clonal populations of SUM159 cells infected with dCas9‐KRAB lentivirus were clonally isolated to ensure dCas9‐KRAB expression. Isolated SUM159 cells were infected with ClpP sgRNA lentivirus followed by additional selection passage in growth media supplemented with […] puromycin.
Total cell counting assays were performed by seeding MDA‐MB‐231 cells (WT and ClpP‐KO; 4000 cells/well) or SUM159 (WT and ClpP‐KO; 1000 cells/well) in a 96‐well plate (Perkin Elmer, 6005050) and allowed to adhere overnight. The growth medium was then aspirated and replaced with 100 μl of growth medium supplemented with the drug at concentrations indicated in the figure or figure legends. Cells treated with vehicle control (0.1% DMSO, Sigma‐Aldrich D2650) were used as a negative control in all experiments, and cells were incubated with drug‐containing media for 24, 48, or 72 h as indicated in figure legends. […] The total cell number was then quantified using the Celigo Imaging Cytometer (Nexcelom).

MDA‐MB‐231 xenografts = experiment: MDA‐MB‐231 mouse xenograft study; type: in vivo
Description: Mitochondrial DNA copy number was determined as previously described.[23] Briefly, genomic DNA was isolated from tissue lysate with DNeasy Blood & Tissue kit (Qiagen, 69504). mtDNA copy number was determined by quantitative PCR with a human mitochondrial to nuclear DNA ratio kit (Takara Bio USA, 7246).
Female athymic nude mice (Crl:NU[Ncr]‐Foxn1^ nu , Charles River) were 8 weeks old with body weight (BW) range of 19.0–27.0 g on Day 1 of the study. Animals were fed ad libitum water (reverse osmosis, 1 ppm Cl) and NIH 31 Modified and Irradiated Lab Diet® consisting of 18.0% crude protein, 5.0% crude fat, and 5.0% crude fiber. Mice were housed on irradiated Enrich‐o'cobs™ Laboratory Animal Bedding in static microisolators on a 14‐h light cycle at 20–22°C and 40%–60% humidity. Charles River Discovery Services North Carolina (CR Discovery Services) specifically complies with the recommendations of the Guide for Care and Use of Laboratory Animals with respect to restraint, husbandry, surgical procedures, feed and fluid regulation, and veterinary care. The animal care and use program at CR Discovery Services is accredited by the Association for Assessment and Accreditation of Laboratory Animal Care International.
MDA‐MB‐231 human breast adenocarcinoma cells were grown to mid‐log phase in RPMI‐1640 supplemented with 10% FBS, 2 mM glutamine, 100 units/ml sodium penicillin G, 25 μg/ml gentamicin, 100 μg/ml streptomycin sulfate, 0.075% sodium bicarbonate, 10 mM HEPES, and 1 mM sodium pyruvate. Cells were cultures at 37°C and 5% CO2.
MDA‐MB‐231 cells were harvested during exponential growth and resuspended in cold, sterile DPBS. Each animal received an orthotopic injection of 5 × 10^6 cells (0.05 ml volume) into the mammary fat pad. Tumor growth was monitored as the average tumor size approached the target range of 60–100 mm^3. Tumors were measured in two dimensions via caliper and volume was calculated using the following formula: Tumor Volume=w^2×l/2, where w is the width and l is the length (mm) of the tumor. Tumor weight was estimated based on the assumption that 1 mg = 1 mm^3. Fourteen days later (Day 1), animals were sorted into groups (n = 10 per group) with a mean tumor volume of 70–73 mm^3.
Compounds were administered orally (p.o.) in a dosing volume of 10 ml/kg. Twice daily doses (B.I.D) were administered at least 6 h apart.
Tumors were measured using calipers biweekly and animals were euthanized upon reaching tumor volume > 1500 mm^3 or on the final study day (Day 36), whichever came first. Time to endpoint (TTE) for analysis was calculated for animals that exited the study due to tumor volume using the following equation: TTE=log10endpoint volume−b/m, where TTE is expressed in days, endpoint volume is expressed in mm^3, b is the y‐intercept, and m is the slope of the line obtained by linear regression of a log‐transformed tumor growth data set. […] In instance where this equation yields a TTE day preceding the day prior to reaching the endpoint or exceeding the day of reaching the endpoint, a linear interpolation was performed to approximate TTE. Animals documented as having died of nontreatment‐related causes due to accident or unknown etiology were excluded from TTE calculations and all further analysis. Animals documented having died due to treatment‐related deaths or nontreatment‐related due to metastasis were assigned a TTE value equivalent to the day of death. Treatment outcome was evaluated from tumor growth delay (TGD) defined as the increase in the median TTE in the treatment group compared with the control group.
On Day 36, all animals in all groups were sampled. Tumors were excised, divided into two parts, and weighed. Part 1 was preserved in a 5 ml fixative solution (4% formaldehyde, 2% glutaraldehyde in 0.1 M cacodylate buffer) and stored at 4°C. Part 2 was trimmed to be less than 0.5 cm in at least one dimension, submerged in five volumes of RNAlater solution, and stored at −20°C.

C3(1)‐Tag cells = experiment: Cell viability assay of C3Tag cells; type: cell-based, murine; conditions: Mus musculus; 72 h, Hoechst stain, N = 2
[2] = Pharmacokinetic analysis in ICR mice; type: in vivo, mouse; conditions: male, mouse, plasma, ICR mice
Description: Samples were placed in tubes containing heparin sodium and stored on ice until centrifuged. Blood samples were centrifuged at 6800g for 6 min at 2–8°C within 1 h following sample collection and stored at −80°C. Proteins from plasma sample aliquots (20 μl) were precipitated by the addition of MeOH (400 μl) containing an internal standard (tolbutamide,100 ng/ml), vortexed for 1 min, and centrifuged at 18 000g for 7 min. The supernatant (200 μl) was transferred to 96 well plates for analysis.
Analysis of samples was conducted as follows. […] The PK parameters including Area Under the Curve (AUC[0–∞]) elimination half‐life (t 1/2), maximal plasma concentration (C max), and oral bioavailability (F%) were analyzed by noncompartmental methods.

## N#Cc1cccc(CN2CCc3ncn(Cc4ccc(Cl)cc4)c(=O)c3C2)c1 [TR‐107]
[1]
  cell growth in ClpP‐KO cells: not inhibited
MDA‐MB‐231 xenografts; 4 mg/kg (G2) and 8 mg/kg (G3) oral, day 26, vs vehicle
  reduction in tumor volume: ~ 50%
MDA‐MB‐231 xenografts; 4 mg/kg and 8 mg/kg oral, both groups, vs vehicle
  increase in median survival: ~ 35%
MDA‐MB‐231 xenografts; 8 mg/kg (G3) vs control, end of study
  mitochondrial DNA in tumor lysates: substantial loss
MDA‐MB‐231 xenografts; 8 mg/kg vs vehicle
  PYCR2 and HMGCS1 protein levels in tumor lysates: significantly reduced
  TFAM in xenograft tumor lysates (immunoblot): significant loss
MDA‐MB‐231 xenografts; even at the highest dosing regimen
  weight loss: less than 5%
MDA‐MB‐231 xenografts; oral 4 and 8 mg/kg
  tolerability: well tolerated
C3(1)‐Tag cells
  IC50: 22 nM
[2]; po, 10 mg/kg orally, read-out: exposure (AUC)
  AUC: 2360 ng·h/mL
[2]; 10 mg/kg oral
  AUC(0-inf): 2360 ng·h/mL
[2]; 10 mg/kg oral, read-out: C max
  Cmax: 3.7 µM
[2]; 10 mg/kg oral, read-out: C max (mg/ml)
  Cmax: 0.00144 mg/mL
[2]; 10 mg/kg oral, read-out: T 1/2 (converted)
  half-life: 54 min
